Usually IC50 stands for the concentration at which inhibition is half-maximal.

human GSK3β, sequence (P49841 whole entry): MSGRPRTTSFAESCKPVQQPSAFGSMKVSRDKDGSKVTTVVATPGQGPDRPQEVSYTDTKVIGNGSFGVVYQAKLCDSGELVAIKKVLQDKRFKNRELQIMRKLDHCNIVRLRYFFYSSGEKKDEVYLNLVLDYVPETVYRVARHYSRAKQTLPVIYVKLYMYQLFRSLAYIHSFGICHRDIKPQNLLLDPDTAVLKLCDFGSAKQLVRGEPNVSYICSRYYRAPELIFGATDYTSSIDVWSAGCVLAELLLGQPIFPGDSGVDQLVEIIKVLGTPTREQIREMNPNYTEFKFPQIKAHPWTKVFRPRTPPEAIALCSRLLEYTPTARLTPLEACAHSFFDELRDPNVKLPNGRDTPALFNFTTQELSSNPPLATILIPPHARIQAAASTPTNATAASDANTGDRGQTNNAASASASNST

For this test, the target named is human GSK3β (Homo sapiens, UniProt P49841). Put plainly: Screening for GSK3 inhibitory activity using a cell-free assay. The format is biochemical. The conditions noted are these: read-out: IC50 with respect to GSK3. The essentials:
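Compounds in DMSO were tested against human GSK3β over a three-hour kinase reaction. Radiolabeled phosphate transferred to the peptide was captured on streptavidin plates after EDTA/ATP stop and quantified by scintillation counting. Signal was plotted versus compound concentration.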
`CNCc1cccc(-c2cccc(CNc3nccc(-c4ccc(C(N)=O)cc4)n3)c2)c1` [4-(2-{[(3-{3-[(methylamino)methyl]phenyl}-phenyl)methyl]amino}pyrimidin-4-yl)benzamide]: the IC50 is at most 10 µM.

Turning to `O=C(NCc1cccc(Br)c1)c1ccc(-c2ccnc(NCCNc3ncccn3)n2)cc1` [N-[(3-bromophenyl)methyl][4-(2-{[2-(pyrimidin-2-ylamino)ethyl]amino}pyrimidin-4-yl)phenyl]carboxamide], the concentration for half-maximal inhibition (IC50) is at most 1 µM.

As to `CCOC(=O)c1cnc(NCCNc2ccc3ccccc3n2)nc1-c1ccc(C#N)cc1` [ethyl 4-(4-cyanophenyl)-2-{[2-(2-quinolylamino)ethyl]amino}pyrimidine-5-carboxylate], the IC50 is at most 10 µM.

As for `CC(=O)Nc1ccc(-c2ccnc(NCCNc3ccc([N+](=O)[O-])cn3)n2)cc1` [N-{4-[2-({2-[(5-nitro-2-pyridyl)amino]ethyl}amino)-pyrimidin-4-yl]phenyl}acetamide], the IC50 is at most 10 µM.

With `O=[N+]([O-])c1ccc(NCCNc2ncc(-c3ccccc3)c(-c3ccc(O)cc3)n2)nc1` [4-[2-({2-[(5-nitro(2-pyridyl))amino]ethyl}amino)-5-phenylpyrimidin-4-yl]phenol], the IC50 is at most 10 µM.

As for `COC(=O)c1cnc(NCCNc2ccc([N+](=O)[O-])cn2)nc1-c1ccc(C#N)cc1` [methyl 4-(4-cyanophenyl)-2-({2-[(5-nitro(2-pyridyl))amino]ethyl}amino)pyrimidine-5-carboxylate], the IC50 is at most 1 µM.

As for `CCOC(=O)c1cnc(NCCNc2ccc([N+](=O)[O-])cn2)nc1-c1ccc(OC)cc1` [ethyl 4-(4-methoxyphenyl)-2-({2-[(5-nitro(2-pyridyl))amino]ethyl}amino)pyrimidine-5-carboxylate], the IC50 is at most 1 µM.

As for `O=C(NCc1cccc(Cl)c1)c1ccc(-c2ccnc(NCCNc3ccc([N+](=O)[O-])cn3)n2)cc1` [N-[(3-chlorophenyl)methyl]{4-[2-({2-[(5-nitro(2-pyridyl))amino]ethyl}amino)pyrimidin-4-yl]-phenyl}carboxamide], the IC50 was at most 10 µM.

For the molecule `CCOC(=O)c1cnc(NCCNc2ccc([N+](=O)[O-])c(NC)n2)nc1-c1ccc(C#N)cc1` [ethyl 4-(4-cyanophenyl)-2-[(2-{[6-(methylamino)-5-nitro(2-pyridyl)]amino}ethyl)amino]pyrimidine-5-carboxylate], the 50% inhibitory concentration (IC50) is at most 10 µM.

With `CCOC(=O)c1cnc(NCCNc2ccc([N+](=O)[O-])cn2)nc1-c1ccc(-n2cnnc2)cc1` [ethyl 2-({2-[(5-nitro(2-pyridyl))amino]ethyl}amino)-4-(4-(1,2,4-triazol-4-yl)phenyl)pyrimidine-5-carboxylate], the IC50 is at most 1 µM.

On to `NS(=O)(=O)c1ccc(CNC(=O)c2ccc(-c3ccnc(NCCNc4ccc([N+](=O)[O-])cn4)n3)cc2)cc1` [{4-[2-({2-[(5-nitro(2-pyridyl))-amino]ethyl}amino)pyrimidin-4-yl]phenyl}-N-[(4-sulfamoylphenyl)methyl]carboxamide], for which the concentration for half-maximal inhibition (IC50) was at most 10 µM.

In the case of `N#Cc1ccc(-c2nc(NCCNc3ccc([N+](=O)[O-])cn3)ncc2[N+](=O)[O-])cc1` [4-[5-nitro-2-({2-[(5-nitro(2-pyridyl))amino]ethyl}amino)pyrimidin-4-yl]benzenecarbonitrile], the IC50 is at most 10 µM.

As for `Nc1nc(NCCNc2nccc(-c3ccc(C(=O)NCc4ccccc4)cc3)n2)ccc1[N+](=O)[O-]` [{4-[2-({2-[(6-amino-5-nitro(2-pyridyl))amino]ethyl}amino)pyrimidin-4-yl]phenyl}-N-benzylcarboxamide], the IC50 is at most 10 µM.

For `Oc1ccc(-c2ccnc(NCCCOc3ccc(Cl)cc3)n2)cc1` [4-(2-{[3-(4-chlorophenoxy)propyl]amino}pyrimidin-4-yl)phenol], the IC50 is at most 10 µM.

Take `O=C(O)c1c(-c2ccncc2)nc(NCCNc2ccc([N+](=O)[O-])cn2)nc1-c1ccc([N+](=O)[O-])cc1` [2-({2-[(5-nitro(2-pyridyl))amino]ethyl}amino)-6-(4-nitrophenyl)-4-(4-pyridyl)pyrimidine-5-carboxylic acid]: the half-maximal inhibitory concentration (IC50) was at most 10 µM.

`O=C(NCCc1ccccc1)c1ccc(-c2ccnc(NCCNc3ccc([N+](=O)[O-])cn3)n2)cc1` [{4-[2-({2-[(5-nitro(2-pyridyl))amino]ethyl}amino)-pyrimidin-4-yl]phenyl}-N-(2-phenylethyl)carboxamide]: the IC50 is at most 10 µM.

`COc1cccc(NCCNc2nccc(-c3ccc(C(=O)NCc4cccc(Br)c4)cc3)n2)n1` [N-[(3-bromophenyl)methyl]{4-[2-({2-[(6-methoxy(2-pyridyl))amino]ethyl}amino)pyrimidin-4-yl]phenyl}carboxamide]: the IC50 is at most 10 µM.

Regarding `O=C(O)c1c(-c2ccccc2)nc(NCCNc2ccc([N+](=O)[O-])cn2)nc1-c1ccccc1F` [6-(2-fluorophenyl)-2-({2-[(5-nitro(2-pyridyl))amino]ethyl}amino)-4-phenyl-pyrimidine-5-carboxylic acid], the IC50 was at most 10 µM.

`CCOC(=O)c1cnc(NCCNc2cc(C)c([N+](=O)[O-])cn2)nc1-c1ccc(C#N)cc1` [ethyl 4-(4-cyanophenyl)-2-({2-[(4-methyl-5-nitro(2-pyridyl))amino]ethyl}amino)pyrimidine-5-carboxylate]: the IC50 was at most 1 µM.

In the case of `O=[N+]([O-])c1ccc(NCCNc2nccc(NCc3cccc(Cl)c3)n2)nc1` [[(3-chlorophenyl)methyl][2-({2-[(5-nitro(2-pyridyl))-amino]ethyl}amino)pyrimidin-4-yl]amine], the IC50 is at most 10 µM.

As for `O=[N+]([O-])c1ccc(NCCNc2nccc(-c3ccc(O)cc3)n2)nc1` [4-[2-({2-[(5-nitro-2-pyridyl)-amino]ethyl}amino)pyrimidin-4-yl]phenol], the IC50 was at most 10 µM.

For the molecule `COc1cccc(CCNc2nccc(-c3ccc(C(N)=O)cc3)n2)c1OC` [4-(2-{[2-(2,3-dimethoxyphenyl)ethyl]amino}pyrimidin-4-yl)benzamide], the IC50 was at most 1 µM.

On to `NC(=O)c1ccc(-c2ccnc(NCCOc3ccccc3)n2)cc1` [4-{2-[(2-phenoxyethyl)amino]pyrimidin-4-yl}benzamide], for which the IC50 is at most 10 µM.

For `CCOC(=O)c1cnc(NCCNc2ccc([N+](=O)[O-])cn2)nc1-c1ccc(N(C)C)cc1` [ethyl 4-[4-(dimethylamino)phenyl]-2-({2-[(5-nitro(2-pyridyl))amino]ethyl}-amino)pyrimidine-5-carboxylate], the concentration for half-maximal inhibition (IC50) was at most 1 µM.

Consider `CCc1cnc(NCCNc2ccccn2)nc1-c1ccccc1`, for which the IC50 is at most 10 µM.

In the case of `O=[N+]([O-])c1ccc(NCCNc2nccc(NCc3cc(Cl)cc(Cl)c3)n2)nc1` [[(3,5-dichlorophenyl)methyl][2-({2-[(5-nitro(2-pyridyl))amino]ethyl}amino)pyrimidin-4-yl]amine], the IC50 was at most 10 µM.

Regarding `CCOC(=O)c1cnc(NCCNc2ccc(C(=O)OC)cn2)nc1-c1ccc(C#N)cc1` [methyl 6-[(2-{[4-(4-cyanophenyl)-5-(ethoxycarbonyl)pyrimidin-2-yl]amino}ethyl)amino]pyridine-3-carboxylate], the IC50 is at most 10 µM.

For the molecule `NC(=O)c1ccc(-c2ccnc(NCc3cccc(-c4cccc(C(F)(F)F)c4)c3)n2)cc1` [4-{2-[({3-[3-(trifluoromethyl)phenyl]phenyl}methyl)amino]pyrimidin-4-yl}benzamide], the half-maximal inhibitory concentration (IC50) is at most 10 µM.

Regarding `NC(=O)c1ccc(-c2ccnc(NCCCOc3cccc(-c4ccccc4)c3)n2)cc1` [4-(2-{[3-(3-phenylphenoxy)propyl]-amino}pyrimidin-4-yl)benzamide], the 50% inhibitory concentration (IC50) is at most 10 µM.

For `O=[N+]([O-])c1ccc(NCCNc2nccc(-c3cccc(O)c3)n2)nc1` [3-[2-({2-[(5-nitro-2-pyridyl)amino]ethyl}-amino)pyrimidin-4-yl]phenol], the 50% inhibitory concentration (IC50) is at most 10 µM.

On to `CCOC(=O)c1cnc(NCCNc2ccc([N+](=O)[O-])cn2)nc1-c1cccc(C(F)(F)F)c1` [ethyl 2-({2-[(5-nitro(2-pyridyl))amino]ethyl}amino)-4-[3-(trifluoromethyl)phenyl]pyrimidine-5-carboxylate], for which the half-inhibitory concentration (IC50) is at most 10 µM.

`Nc1nc(NCCNc2ncc(C(=O)O)c(-c3ccc([N+](=O)[O-])cc3)n2)ccc1[N+](=O)[O-]`: the concentration for half-maximal inhibition (IC50) was at most 1 µM.

Regarding `N#Cc1ccc(-c2nc(NCCNc3ccc([N+](=O)[O-])c(N)n3)ncc2-c2ncc[nH]2)cc1` [4-[2-({2-[(6-amino-5-nitro(2-pyridyl))amino]-ethyl}amino)-5-imidazol-2-ylpyrimidin-4-yl]benzenecarbonitrile], the 50% inhibitory concentration (IC50) was at most 1 µM.

As for `O=C(NCc1ccc(Cl)c(Cl)c1)c1ccc(-c2ccnc(NCCNc3ccc([N+](=O)[O-])cn3)n2)cc1` [N-[(3,4-dichlorophenyl)methyl]{4-[2-({2-[(5-nitro(2-pyridyl))amino]ethyl}amino)pyrimidin-4-yl]phenyl}carboxamide], the IC50 is at most 10 µM.

Consider `NC(=O)c1ccc(-c2ccnc(NCc3cccc(-c4cccc(N)c4)c3)n2)cc1` [4-[2-({[3-(3-aminophenyl)phenyl]methyl}amino)pyrimidin-4-yl]benzamide], for which the half-maximal inhibitory concentration (IC50) was at most 10 µM.

In the case of `CCOC(=O)c1cnc(NCCNc2ccc([N+](=O)[O-])cn2)nc1-c1cccc(F)c1` [ethyl 4-(3-fluorophenyl)-2-({2-[(5-nitro(2-pyridyl))amino]ethyl}amino)pyrimidine-5-carboxylate], the IC50 was at most 10 µM.

Consider `CN1CCN(c2ccc(NCCNc3ccc(C#N)cn3)nc2-c2ccc(Cl)cc2Cl)C(=O)C1` [6-[(2-{[6-(2,4-dichlorophenyl)-5-(4-methyl-2-oxo-1-piperazinyl)-2-pyridinyl]amino}ethyl)amino]nicotinonitrile], for which the IC50 was at most 10 µM.

On to `N#Cc1cccc(-c2ccnc(NCCNc3ccc([N+](=O)[O-])cn3)n2)c1` [3-[2-({2-[(5-nitro-2-pyridyl)amino]ethyl}amino)pyrimidin-4-yl]benzenecarbonitrile], for which the half-inhibitory concentration (IC50) is at most 10 µM.

For `NC(=O)c1ccc(-c2ccnc(NCc3ccc(Br)cc3)n2)cc1` [4-(2-{[(4-bromophenyl)methyl]amino}pyrimidin-4-yl)benzamide], the half-maximal inhibitory concentration (IC50) was at most 10 µM.
